Consider one substance from patent US20110245323A1, “RIG-Like Helicase Innate Immunity Inhibits VEGF-Induced Tissue Responses” (Yale University, priority 2006, published 2011).

Holding throughout (assay type): in vivo, mouse
Experiment [1] has as its system transgenic hVEGF. As to the kind of experiment: BAL levels of transgenic VEGF by ELISA. Conditions: Tg+ mice, Poly(I:C) vs vehicle; doses <30 μg. From the text:
WT and CC10-rtTA-VEGF mice were used in these studies. The latter used the Clara cell 10-kDa protein (CC10) promoter and two transgenic constructs to target VEGF to the lung in an externally regulatable fashion. The human (h) VEGF165 transgene in these mice was activated via the administration of doxycycline (dox) as previously described (Lee et al., 2004, Nat Med 10:1095-1103). In the wild type (WT) mice on normal or dox water and the Tg+ mice on normal water, hVEGF levels in bronchoalveolar lavage fluids (BAL) were <10 pg/ml. Increased levels of BAL VEGF were noted within 24 hours and steady state levels between 0.5 and 1.2 ng/ml were seen after 1 week of dox administration (FIG. 28).
(§1) To define the effects of Poly(I:C) a number of protocols were employed. In most experiments, a pretreatment-2 week protocol was employed. In these experiments, WT and Tg+ mice were treated with Poly(I:C) (30 μg in 50 lambda unless otherwise indicated; Amersham Biosciences, N.J.) or vehicle control via nasal aspiration and transgene activation was accomplished via the administration of dox (0.5 mg/ml) in the animal's drinking water 24 hours later. The Poly(I:C) was administered every other day and the dox was administered continuously for up to 2 weeks.
ELISA assay kits for VEGF and IL-13 were purchased from R&D Systems (Minneapolis, Minn.).

Experiment [2] concerns CC10-rtTA-VEGF165 transgenic mice. Kind of experiment: VEGF-induced vascular permeability (Evans blue dye extravasation, lung wet to dry weight ratio, BAL protein). As to the method:
as §1
(§2) Lastly, in selected experiments post-transgene activation protocols were employed. In these experiments dox was administered for 2 days or 2 weeks. The Poly(I:C) was then administered via intranasal aspiration every other day for 2 weeks as disclosed elsewhere herein. In selected pre-treatment and post-transgene activation experiments, unmethylated CpG (CpG-B) (Keck Center, Yale University) was also employed at similar doses. At the end of these intervals, assessments of angiogenesis (anti-CD31 immunohistochemistry), vascular permeability (Evan's blue dye extravasation, wet to dry lung weight measurements, BAL protein concentration), BAL and tissue inflammatory cell infiltration and mucus metaplasia (periodic acid-Schiff (PAS) staining, MUC5AC immunoblotting) were undertaken. In all cases experiments were designed to compare Tg− and Tg+ mice on normal water and Tg− and Tg+ mice on dox water.
Lungs were excised en bloc and extrapulmonary tissues were removed. They were then weighed, placed in a desiccating oven at 65° C. for 48 hours and reweighed.
In some instances, animal lungs were excised en bloc after intravascular perfusion and weighed. They were then put into a SpeedVac system (ThermoSavant; Milford, Mass.), desiccated at 60° C. overnight, and reweighed.
Evans blue dye (EBD) (Sigma-Aldrich Inc.) in 0.9% saline at a concentration of 5 mg/ml was used to assess plasma leakage as previously described (Lee et al., 2004, Nat Med 10:1095-1103). The results are expressed as the ratio of the EBD absorbance at 620 nm of paired lung homogenates and serum.
BAL was undertaken and protein levels were assessed using the Dc Protein Assay Kit (Bio-Rad Laboratories, Hercules, Calif.) according to manufacturer's instructions. The optical density of each sample was read at 750 nm wave length with a Smartspec 3000 Spectrophotometer (Bio-Rad Laboratories).

For experiment [3] the test system is unchanged. As to the kind of experiment: VEGF-induced mucus metaplasia (PAS staining, BAL MUC5AC). Conditions: for VEGF-induced mucus metaplasia (PAS stains, BAL MUC5AC accumulation): vs vehicle. The method, then: as §1, §2
The lungs were removed en bloc as described elsewhere herein, inflated at 25 cm pressure with PBS containing 0.5% low melting point agarose gel, fixed in Streck solution (Streck Laboratories, La Vista, Nebr.), embedded in paraffin, sectioned and stained. Hematoxylin and eosin and PAS stains were performed in the Research Histology Laboratory of the Department of Pathology at the Yale University School of Medicine. Pulmonary hemorrhage was evaluated by quantitating BAL red blood cell number with a Coulter counter (Beckman Coulter).
The levels of MUC5AC, the major airway mucin in BAL fluids, were assessed as previously described (Lee et al., 2008, Am J Respir Cell Mol Biol 39:739-746). In these evaluations, 0.1 ml of BAL fluid was slot blotted onto nitrocellulose membranes using a Minifold II slot blot apparatus (Schleicher & Schuell). After air-drying, the membrane was blocked with 5% skim milk, washed three times and incubated overnight at 4° C. with a monoclonal antibody against Mucin-5AC (45M1; NeoMarkers, Union City, Calif.). After washing, the membranes were incubated for 1 hour at room temperature with horseradish peroxidase-conjugated anti-mouse immunoglobulin (Ig)-G (Pierce). Immunoreactive mucins were detected using a chemiluminescent procedure (ECL Plus Western blotting detection system, Amersham Biosciences) according to instructions from the manufacturer.

The subject of experiment [4] is MAVS. As to the kind of experiment: Poly(I:C) effects in MAVS null mice.
Source text: (§3) TLR3^−/−-mice were a gift from Dr. Richard A. Flavell (Yale University), MAVS null mice were a gift from Dr Zijian J. Chen (U of Texas Southwestern) (Sun et al., 2006, Immunity 24:633-642), double stranded RNA-dependent protein kinase null mutant mice (PKR^−/−) were a gift from Dr. Bryan R. G. Williams (Cleveland Clinic Foundation) (Yang et al., 1995, Embo J 14:6095-6106) and IFNAR1 null mice were obtained from Dr. Richard Enelow (Dartmouth). These mice were bred with the VEGF Tg+ mice to generate transgenic mice with wild type (+/+) or null (−/−) TLR3, MAVS, PKR or IFNAR1 loci. Thus, in each given experiment, the effects in transgene negative (Tg−) and transgenic (Tg+) mice with WT and null TLR3, MAVS, PKR or IFNAR1 loci were compared.
as §1
OVA sensitization (with alum) and aerosol OVA challenge were undertaken as previously described (Lee et al., 2008, Am J Respir Cell Mol Biol 39:739-746; Lee et al., 2009, J Exp Med 206:1149-1166). The responses in mice that had been treated with Poly(I:C) or vehicle 24 hours before the aerosol challenge were compared. The BAL and tissue responses were evaluated 24 hours after antigen challenge.

For experiment [5], the system named is IFNAR1. Kind of experiment: Poly(I:C) regulation of VEGF responses in IFNAR1 null VEGF Tg+ mice.
Source text: as §3
To define the effects of Poly(I:C) a number of protocols were employed. In most experiments, a pretreatment-2 week protocol was employed. In these experiments, WT and Tg+ mice were treated with Poly(I:C) (30 μg in 50 lambda unless otherwise indicated; Amersham Biosciences, N.J.) or vehicle control via nasal aspiration and transgene activation was accomplished via the administration of dox (0.5 mg/ml) in the animal's drinking water 24 hours later. The Poly(I:C) was administered every other day and the dox was administered continuously for up to 2 weeks. […]

The subject of experiment [6] is PKR. Kind of experiment: Poly(I:C) regulation of VEGF responses in PKR null VEGF Tg+ mice. Conditions: angiogenesis and dye extravasation.
Source text: as §3, §1

The mark [7] stands for this setting: Tg+ mice, pretreatment, vs vehicle.
The mark [8] stands for this setting: given 48 hours or 14 days after dox-induced transgene activation.
Setting [9] is: pretreatment, highest dose tested.

Take “polyinosinic-polycytidylic acid [Poly(I:C)]”: the “levels of production of transgenic VEGF in BAL fluids” value in experiment [1] is reported as “did not alter”. In addition, in experiment [2] (setting [7]), the “Evan's blue dye leakage in lungs” value was “lower levels”; the “VEGF-induced permeability alterations (Evans blue dye extravasation, lung wet to dry weight ratios, BAL protein)” value is reported as “inhibited”; the “levels of protein in BAL fluids” value is recorded as “lower levels”. Also, the “VEGF-induced vascular permeability alterations, delayed administration” value in experiment [2] (setting [8]) is given as “significant inhibition”. Besides, in experiment [2] (pretreatment), the “lowest dose with significant inhibition of VEGF-induced permeability alterations” value came out at 5 µg. Further, the “dose with maximal inhibition of VEGF-induced permeability alterations” value in experiment [2] (setting [9]) came to 30 µg. In experiment [3] (Tg+ mice, pretreatment), the VEGF-stimulated mucus secretion result is listed as “decreased” and the “VEGF-induced mucus metaplasia (PAS stains, BAL MUC5AC accumulation)” value is “inhibited”. Further, in experiment [3] (Tg+ mice, pretreatment, listed as poly(I:C)), the “VEGF-induced mucus metaplasia (PAS stains, BAL MUC5AC accumulation)” value is “significantly decreased”. Also, the “VEGF-induced mucus metaplasia, delayed administration” value in experiment [3] (setting [8]) was “significant inhibition”. In addition, the “lowest dose with significant inhibition of VEGF-induced mucus metaplasia” value in experiment [3] (pretreatment) was 5 µg. Moreover, the “dose with maximal inhibition of VEGF-induced mucus metaplasia” value in experiment [3] (setting [9]) was 30 µg. Besides, the “ability to inhibit VEGF-induced angiogenic, edema, inflammatory and mucus responses in MAVS deficient animals” value in experiment [4] (30 μg pretreatment, 2 weeks) is “abrogated”. In addition, the “induction of Type I IFNs in mice with null MAVS loci” value in experiment [4] (BAL IFN-α and IFN-β) is on record as “significantly ameliorated”. The “inhibitory effects on OVA-induced inflammation in MAVS null animals” value in experiment [4] (OVA sensitization and challenge) is listed as “abrogated”. In addition, the “ability to inhibit VEGF-induced angiogenesis, edema, inflammation and mucin production in Tg+ mice with null mutations of IFNAR1” value in experiment [5] (30 μg pretreatment, 2 weeks) is given as “significantly decreased”. Besides, the “ability to inhibit Erk, FAK, Akt and eNOS signaling pathways in mice lacking the IFNAR1 receptor” value in experiment [5] (Tg+ mice lung immunoblot) is “significantly decreased”. In addition, the “effects of Poly(I:C) in PKR null mice” value in experiment [6] is on record as “not significantly altered”.
